Patent US6696407B1, “Huntington's disease treatment comprising administering aldose reductase inhibitors to increase striatal CNTF” (The Regents of the University of California, priority 1997, dated 2004)
Marks after values point to notes of the source that are not given here.

Experiments:
myelinated fibers = experiment: Axonal size-frequency distribution of myelinated fibers in sciatic nerve; type: in vivo, rat; conditions: galactose-fed rats
Description: These studies were conducted with the approval of the San Diego Veterans Administration Animal Studies Subcommittee. Female Sprague-Dawley rats (240-300 g; Charles River, San Diego, Calif.) were housed in cages with wire bottoms to reduce contact with urine and feces. Groups were established and fed either a 40% D-galactose diet or a control diet specially formulated by Purina that contained 40% solka floc, a nonnutritive fiber, to balance nutritional intake. All diets contained 100% of the micronutrients required by rats and, with water, were available ad libitum. Each of these diet groups contained animals that were treated with the ARI, Ponalrestat (50 mg/kg), daily by oral gavage. After two months, rats were anesthetized by intraperitoneal injection (1 ml/kg ip) of pentobarbital sodium (12.5 mg/ml) and diazepam (1.25 mg/ml) in bacteriostatic saline. Under deep anesthesia, motor nerve conduction velocity (MNCV) was measured in the left hindlimb prior to removal of the sciatic nerve. The proximal portion was processed for subsequent light microscopic examination and the distal portion used for gas chromatographic analysis of nerve polyols. The contralateral sciatic nerve was removed and used for assay of CNTF-like neurotrophic activity and either Northern blot or ELISA analysis of CNTF mRNA or protein, respectively.
For light microscopic examination, proximal portions of sciatic nerve were fixed in 2.5% phosphate-buffered glutaraldehyde (490 mosmol/kg H2O). Tissue was then postfixed in 1% aqueous osmium tetroxide for 3 to 4 hours before dehydration using a series of graded alcohols and propylene oxide. […]
In each animal, computer-assisted analysis of the axonal size-frequency distributions of myelinated fibers was performed on a single thick section sampled from the tibial fascicle midway between the sciatic notch and popliteal fossa as described in detail previously by Forcier et al. (1991) J. Neuropathol. […] Briefly, video images (Cohu, San Diego, Calif.) of the tibial fascicle obtained with an Olympus light microscope were analyzed using a VAXstation II/GPX processor (Digital Equipment Corp., Boston, Mass.) with data translation imaging hardware (DT 2651, Data Translation, Marlboro, Mass.) for digitization of single video frames and an image processing board (DT2658) for mathematical operations. […]
Two months of galactose feeding was associated with a shift in the axonal size-frequency distribution of myelinated fibers towards those with smaller diameter axons (FIG. 4). […] Data are presented as the mean ±SD (N=8 to 10 per group) and were analyzed with a one way ANOVA after which multiple comparisons were made with the Student-Newman-Keuls test. […]

[1] = Motor nerve conduction velocity (MNCV); type: in vivo, rat; conditions: Ponalrestat 50 mg/kg daily oral, two months
Description: These studies were conducted with the approval of the San Diego Veterans Administration Animal Studies Subcommittee. Female Sprague-Dawley rats (240-300 g; Charles River, San Diego, Calif.) were housed in cages with wire bottoms to reduce contact with urine and feces. Groups were established and fed either a 40% D-galactose diet or a control diet specially formulated by Purina that contained 40% solka floc, a nonnutritive fiber, to balance nutritional intake. All diets contained 100% of the micronutrients required by rats and, with water, were available ad libitum. Each of these diet groups contained animals that were treated with the ARI, Ponalrestat (50 mg/kg), daily by oral gavage. […] Under deep anesthesia, motor nerve conduction velocity (MNCV) was measured in the left hindlimb prior to removal of the sciatic nerve. […] Evoked responses were recorded with needle electrodes placed in the interosseous muscles of the ipsilateral foot, amplified (×100) with a P15 AC Amplifier (Grass Instruments Co, Quincy, Mass.) and recorded on a 5110 Storage Oscilloscope and 5D10 Waveform Digitizer (Tektronix, Inc., Beaverton, Oreg.). […] Data are presented as mean ±SD (N=8 to 10) and were analyzed with a one way ANOVA after which multiple comparisons were made with the Student-Newman-Keuls test. […] ARI-treated animals received a daily oral gavage (50 mg/kg) of Ponalrestat (ND-Not detected).

For `O=C(O)Cc1nn(Cc2ccc(Br)cc2F)c(=O)c2ccccc12` [Ponalrestat, 3-(4-bromo-2-fluorobenzyl)-4-oxo-3H-phthalazin-1-ylacetic acid], the “Relative number, Medium myelinated axons” value (myelinated fibers; diameter >3 μm but <7 μm, Ponalrestat 50 mg/kg daily oral, two months) was 45.2 ± 5.0^a %, the “Relative number, Small myelinated axons” value (myelinated fibers; diameter ≦3 μm, Ponalrestat 50 mg/kg daily oral, two months) was 17.7 ± 4.9% and the “Relative number, Large myelinated axons” value (myelinated fibers; diameter ≧7 μm, Ponalrestat 50 mg/kg daily oral, two months) was 37.1 ± 6.7^a %. For the same molecule, the “Changes in axonal caliber” value (myelinated fibers) was “prevented”, the MNCV ([1]; 40% D-galactose diet rats) was 64.8 ± 5.1^a m/s and the MNCV ([1]; control diet rats) was 63.9 ± 4.0^a m/s.
